Patent publication US9006257B2, “Bicyclic compounds as mPGES-1 inhibitors” (Glenmark Pharmaceuticals S.A., priority 2012, dated 2015)

Target: T1, Recombinant human mPGES-1 (Homo sapiens, UniProt O14684)
T1 construct: made in house; host or cells: CHO cells
T1 sequence (O14684 1-152): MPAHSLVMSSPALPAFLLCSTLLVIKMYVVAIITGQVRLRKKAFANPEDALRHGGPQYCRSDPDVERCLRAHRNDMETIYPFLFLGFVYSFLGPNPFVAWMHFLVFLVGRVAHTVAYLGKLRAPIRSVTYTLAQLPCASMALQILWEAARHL
Experiment: In-vitro mPGES-1 inhibitor screening (inhibition of PGE2 formation from PGH2, HTRF detection)
Assay type: biochemical
Conditions: for inhibition at 1 µM: 1 μM test compound, read-out: Percentage inhibition at 1 μM; for inhibition at 1 µM / inhibition at 10 µM: crude microsomal fraction, 15 μM PGH2; for inhibition at 10 µM: 10 μM test compound, read-out: Percentage inhibition at 10 μM; for IC50: class symbol, concentration response curve
Text: In-Vitro Protocol for Screening of mPGES-1 Inhibitors:
mPGES-1 (microsomal prostaglandin E synthase-1) is a microsomal enzyme that converts endoperoxide substrate PGH2 (prostaglandin H2) to product PGE2 (prostaglandin E2) by isomerization in the presence of reduced glutathione (GSH). mPGES-1 inhibitors were screened by assessing their ability to inhibit formation of PGE2 from PGH2 in presence of mPGES-1 using an anti-PGE2 antibody based detection method. Recombinant human mPGES-1 was generated in-house by expression in CHO cells (Ouellet M et al. (2002), Protein Expression and Purification 26: 489-495). The assay was set up using crude microsomal fractions at protein concentration of 40-60 μg/mL. Test compounds were prepared in 100% dimethyl sulfoxide (DMSO) to obtain 20 mM stock solution and then diluted using assay buffer comprising 0.1 M Potassium phosphate buffer with 2 mM EDTA. The final concentration of DMSO in reaction was 0.5% (v/v). Negative controls were comprised of all assay reagents except the enzyme. Positive controls were comprised of the enzyme reaction in the absence of any inhibitor. Test compounds were incubated for 10 minutes in assay buffer containing 2.5 mM GSH and mPGES-1 enzyme followed by addition of PGH2 at a concentration of 15 μM for 1 minute. The reaction was stopped by addition of Stannous chloride (11 mg/ml) and PGE2 levels were measured (Masse F et al. (2005), Journal of Biomolecular Screening 10(6) 599-605., Goedken R E et al. (2008), Journal of Biomolecular Screening 13(7): 619-625) by HTRF kit (CisBio)).
Inhibition of mPGES-1 enzyme activity was measured using the percent of reaction occurring in the positive control. Concentration response curves were plotted using percent inhibition of maximum enzyme reaction. The IC50 value was calculated from the concentration response curve by nonlinear regression analysis using GraphPad PRISM software.

| inhibition at 1 µM [%] | inhibition at 10 µM [%] | IC50 [nM] | Compound |
| --- | --- | --- | --- |
| 97.3 | 97.8 | < 50 | CC(C)(C)Nc1ncnc2c(NC(=O)c3c(Cl)ccc(CNC(=O)C(C)(C)C)c3F)cccc12 [Example-62, N-(4-(tert-Butylamino)quinazolin-8-yl)-6-chloro-2-fluoro-3-(pivalamidomethyl)benzamide] |
| 84.9 | 98.2 | < 50 | CC(C)(C)Nc1ncnc2c(NC(=O)c3c(Cl)ccc(CNC(=O)C(C)(C)CO)c3F)cccc12 [Example-69, N-(4-(tert-Butylamino)quinazolin-8-yl)-6-chloro-2-fluoro-3-((3-hydroxy-2,2-dimethylpropanamido)methyl)benzamide] |
| 94.1 | 99.8 | < 50 | CC(C)(C)C(=O)NCc1ccc(Cl)c(C(=O)Nc2cccc3cccnc23)c1F [Example-55, 6-Chloro-2-fluoro-3-(pivalamidomethyl)-N-(quinolin-8-yl)benzamide] |
| 78.4 | 99.9 | < 50 | CC(C)Nc1ncnc2c(NC(=O)c3c(Cl)ccc(CNC(=O)C(C)C)c3F)cccc12 [Example-77, 6-Chloro-2-fluoro-3-(isobutyramidomethyl)-N-(4-(isopropylamino)quinazolin-8-yl)benzamide] |
| 99.1 | 100 | < 50 | CC(C)(C)C(=O)NCc1ccc(Cl)c(C(=O)Nc2cccc3c(Oc4cc(C(F)(F)F)ccc4F)ncnc23)c1F [Example-28, 6-Chloro-2-fluoro-N-(4-(2-fluoro-5-(trifluoromethyl)phenoxy)quinazolin-8-yl)-3-(pivalamidomethyl)benzamide] |

The remaining lines, values behind:

| Compound | inhibition at 1 µM [%] | inhibition at 10 µM [%] | IC50 [nM] |
| --- | --- | --- | --- |
| Cc1nc(Oc2cccc(C(F)(F)F)c2)c2cccc(NC(=O)c3c(Cl)ccc(CNC(=O)C(C)(C)C)c3F)c2n1 [Example-56, 6-Chloro-2-fluoro-N-(2-methyl-4-(3-(trifluoromethyl)phenoxy)quinazolin-8-yl)-3-(pivalamidomethyl)benzamide] | 97.9 | 99.3 | 50 to 100 |
| CC(C)(C)C(=O)NCc1ccc(Cl)c(C(=O)Nc2cccc3c(Oc4ccc(F)c(C(F)(F)F)c4)ccnc23)c1F [Example-51, 6-Chloro-2-fluoro-N-(4-(4-fluoro-3-(trifluoromethyl)phenoxy)quinolin-8-yl)-3-(pivalamidomethyl)benzamide] | 99.3 | 99.7 | < 50 |
| CC(C)(C)C(=O)NCc1ccc(Cl)c(C(=O)Nc2cccc3c(Oc4cc(C(F)(F)F)ccc4F)nccc23)c1 [Example-41, 2-Chloro-N-(1-(2-fluoro-5-(trifluoromethyl)phenoxy)isoquinolin-5-yl)-5-(pivalamidomethyl)benzamide] | 99 | 97.6 | < 50 |
| O=C(Nc1cccc2c(Nc3cc(C(F)(F)F)ccc3F)ncnc12)c1c(F)cccc1Cl [Example-34, 2-Chloro-6-fluoro-N-(4-((2-fluoro-5-(trifluoromethyl)phenyl)amino)quinazolin-8-yl)benzamide] | 75.4 | 84 | > 100 |
| CC(C)(C)C(=O)NCc1ccc(Cl)c(C(=O)Nc2cccc3c(Oc4cc(C(F)(F)F)ccc4F)ccnc23)c1F [Example-40, 6-Chloro-2-fluoro-N-(4-(2-fluoro-5-(trifluoromethyl)phenoxy)quinolin-8-yl)-3-(pivalamidomethyl)benzamide] | 99.3 | 98.5 | < 50 |
| CC(C)(C)C(=O)NCc1ccc(Cl)c(C(=O)Nc2cccc3c(O[C@H]4CC[C@@H](C(F)(F)F)CC4)nccc23)c1 [Example-47, 2-Chloro-5-(pivalamidomethyl)-N-(1-(((1s,4s)-4-(trifluoromethyl)cyclohexyl)oxy)isoquinolin-5-yl)benzamide] | 85.1 | 97.7 | > 100 |
